Laboratory results published in patent US11464770B2, “Anticancer pharmaceutical composition” (NATIONAL CANCER CENTER, priority 2016, dated 2022).

Tested on: zebrafish
Assay: Cardiotoxicity experiment using zebrafish (heart rate, lethality)
Assay type: in vivo
Details: 10 uM, n = 10

With `COc1ccc(CCN2CCC(Nc3nc4ccccc4n3Cc3ccc(F)cc3)CC2)cc1` [Astemizole, reference compound] the “Changes (%) in heart rate” value (mean) was 46.2% and the Lethality was 0/10.
